# Measurements: article PMC2120305 (The Journal of Cell Biology, 1994)
# “And” between values parts separate entries of the source, which are not always exact repeats. Equal values may be shown once. Read-outs that look alike come from different tables or passages of the source.
# How the values were obtained:
# [1] = system: glycosylation of VSV-g protein; type: biochemical, CHO cells
# [2] = system: glycosylation of endogenous VSV-g protein; type: biochemical, CHO cells
# Golgi membranes = test: Membrane integrity: retention of a preformed UDP-[3H]-GlcNAc gradient; type: biochemical, CHO cells; settings: Fig. 5 A; MAS 3.3 µM, ARFp13 43 µM, NEM 1 mM, SDS 50 µM; 10 min with inhibitors
# in vitro Golgi transport = type: biochemical, CHO cells
# [3] = system: beta-COP binding to isolated Golgi membranes; settings: 25 µM MAS; cited from earlier work
# [4] = system: p200 binding to rat liver Golgi membranes; settings: 100 µM MAS; cited from earlier work
# [5] = system: release of vesicles from the TGN of PC12 cells; settings: cited from earlier work
molecule,measurement,setting,value
CCN1C(=O)C=CC1=O [NEM],Glycosylation of VSV-g protein after its delivery to the acceptor compartment,[1],subse- quent glycosylation is inhibited
same,Effect on glycosylation of VSV-g protein,[2],similarly inhibitory effect
same,Integrity of the membranes,Golgi membranes,near complete loss of membrane integrity
CCCCCCCCCCCCOS(=O)(=O)[O-].[Na+] [SDS],Effect on glycosylation of VSV-g protein,[2],similarly inhibitory effect
same,Integrity of the membranes,Golgi membranes,only partially compromised
Mastoparan,IC50 with normal versus ARF-depleted cytosol,in vitro Golgi transport,the same
same,IC50,in vitro Golgi transport; read-out: IC50 for inhibition of in vitro Golgi transport,0.75 µM
same,IC50,"in vitro Golgi transport; read-out: IC50 in vitro transport, addition of BFA 0 µM",2.2 µM
same,IC50,"in vitro Golgi transport; read-out: IC50 in vitro transport, addition of BFA 200 µM",2 µM
same,IC50,"in vitro Golgi transport; read-out: IC50 in vitro transport, addition of GTP 0 µM",1.4 µM
same,IC50,"in vitro Golgi transport; read-out: IC50 in vitro transport, addition of GTP 50 µM",1.3 µM
same,IC50,"in vitro Golgi transport; read-out: IC50 in vitro transport, mock-treated membranes",1.3 µM
same,IC50,"in vitro Golgi transport; read-out: IC50 in vitro transport, pertussis toxin treated membranes",1.3 µM
same,Glycosylation of VSV-g protein after its delivery to the acceptor compartment,[1],subse- quent glycosylation is inhibited
same,IC50,"[1]; read-out: IC50, peptide added before glycosylation",2800 nM and 1900 nM
same,Effect on glycosylation of VSV-g protein,[2],similarly inhibitory effect
same,Integrity of the membranes,Golgi membranes,near complete loss of membrane integrity
same,Increase in the amount of beta-COP bound to isolated Golgi membranes,[3],10 fold
same,Stimulation of p200 binding to rat liver Golgi membranes in vitro,[4],more than sevenfold
same,Inhibition of release of vesicles from the TGN,[5],~30%
Pertussis toxin,Stimulation of TGN vesicle release after pertussis toxin treatment,[5],1.6- 1.7 fold
